Laboratory results as given in ChEMBL document CHEMBL4196088, “Induction of cell killing and autophagy by amphiphilic pyrrolidine derivatives on human pancreatic cancer cells” (Eur J Med Chem, 2018).
Active and inactive are the calls of the source. No cut-off for these calls is given here.

Columns and labels:
SK-BR-3 = assay: Growth inhibition of human SKBR3 cells at 20 uM after 72 hrs; assay type: functional, cell-based
PK9 [1] = assay: Growth inhibition of human PK9 cells at 20 uM after 72 hrs by MTT assay; assay type: functional, cell-based
PANC-1 [2] = assay: Growth inhibition of human PANC1 cells at 20 uM after 72 hrs; assay type: functional, cell-based
BXPC-3 [3] = assay: Growth inhibition of human BxPC3 cells after 72 hrs by XTT assay; assay type: functional, cell-based; conditions: BXPC-3, 72 h
PANC-1 [4] = assay: Growth inhibition of human PANC1 cells after 72 hrs by XTT assay; assay type: functional, cell-based; conditions: PANC-1, 72 h
MIA PaCa-2 = assay: Growth inhibition of human MIAPaCa2 cells after 72 hrs by MTT assay; assay type: functional, cell-based; conditions: MIA PaCa-2, 72 h
PK9 [5] = assay: Growth inhibition of human PK9 cells after 72 hrs by MTT assay; assay type: functional, cell-based; conditions: PK9, 72 h
PANC-1 [6] = assay: Induction of apoptosis in human PANC1 cells assessed as accumulation at sub-G0/G1 phase at 20 uM after 24 hrs by propidium iodide staining based flow cytometry (reference value: 0.6 to 0.7%); assay type: functional
PANC-1 [7] = assay: Induction of apoptosis in human PANC1 cells assessed as accumulation at sub-G0/G1 phase at 20 uM after 48 hrs by propidium iodide staining based flow cytometry (reference value: 0.2 to 2.9%); assay type: functional
PANC-1 [8] = assay: Induction of apoptosis in human PANC1 cells assessed as accumulation at sub-G0/G1 phase at 20 uM after 72 hrs by propidium iodide staining based flow cytometry (reference value: 1.6 to 3.2%); assay type: functional
PANC-1 [9] = assay: Induction of apoptosis in human PANC1 cells assessed as accumulation at sub-G0/G1 phase at 10 uM after 24 hrs by propidium iodide staining based flow cytometry (reference value: 0.6 to 0.7%); assay type: functional
PANC-1 [10] = assay: Induction of apoptosis in human PANC1 cells assessed as accumulation at sub-G0/G1 phase at 10 uM after 48 hrs by propidium iodide staining based flow cytometry (reference value: 0.2 to 2.9%); assay type: functional
PANC-1 [11] = assay: Induction of apoptosis in human PANC1 cells assessed as accumulation at sub-G0/G1 phase at 10 uM after 72 hrs by propidium iodide staining based flow cytometry (reference value: 1.6 to 3.2%); assay type: functional
BXPC-3 [12] = assay: Induction of apoptosis in human BxPC3 cells assessed as accumulation at sub-G0/G1 phase at 20 uM after 24 hrs by propidium iodide staining based flow cytometry (reference value: 2.3%); assay type: functional
BXPC-3 [13] = assay: Induction of apoptosis in human BxPC3 cells assessed as accumulation at sub-G0/G1 phase at 20 uM after 48 hrs by propidium iodide staining based flow cytometry (reference value: 2.8%); assay type: functional
BXPC-3 [14] = assay: Induction of apoptosis in human BxPC3 cells assessed as accumulation at sub-G0/G1 phase at 20 uM after 72 hrs by propidium iodide staining based flow cytometry (reference value: 3.4%); assay type: functional
BXPC-3 [15] = assay: Induction of apoptosis in human BxPC3 cells assessed as accumulation at sub-G0/G1 phase harboring pSFFV-Bcl-XL at 20 uM after 24 hrs by propidium iodide staining based flow cytometry (reference value: 1.2%); assay type: functional
BXPC-3 [16] = assay: Induction of apoptosis in human BxPC3 cells assessed as accumulation at sub-G0/G1 phase harboring pSFFV-Bcl-XL at 20 uM after 48 hrs by propidium iodide staining based flow cytometry (reference value: 1.3%); assay type: functional
BXPC-3 [17] = assay: Induction of apoptosis in human BxPC3 cells assessed as accumulation at sub-G0/G1 phase harboring pSFFV-Bcl-XL at 20 uM after 72 hrs by propidium iodide staining based flow cytometry (reference value: 1.3%); assay type: functional
PK9 [18] = assay: Induction of apoptosis in human PK9 cells assessed as accumulation at sub-G0/G1 phase at 20 uM after 24 hrs by propidium iodide staining based flow cytometry (reference value: 2.2%); assay type: functional
PK9 [19] = assay: Induction of apoptosis in human PK9 cells assessed as accumulation at sub-G0/G1 phase at 20 uM after 48 hrs by propidium iodide staining based flow cytometry (reference value: 3.8%); assay type: functional
PK9 [20] = assay: Induction of apoptosis in human PK9 cells assessed as accumulation at sub-G0/G1 phase at 20 uM after 72 hrs by propidium iodide staining based flow cytometry (reference value: 4%); assay type: functional
[21] = Induction of apoptosis in HPNE cells assessed as accumulation at sub-G0/G1 phase at 20 uM after 24 hrs by propidium iodide staining based flow cytometry (reference value: 0.6%); assay type: cell-based; conditions: human
[22] = Induction of apoptosis in HPNE cells assessed as accumulation at sub-G0/G1 phase at 20 uM after 48 hrs by propidium iodide staining based flow cytometry (reference value: 0.7%); assay type: cell-based; conditions: human
[23] = Induction of apoptosis in HPNE cells assessed as accumulation at sub-G0/G1 phase at 20 uM after 72 hrs by propidium iodide staining based flow cytometry (reference value: 6.6%); assay type: cell-based; conditions: human
BXPC-3 [24] = assay: Induction of apoptosis in human BxPC3 cells assessed as accumulation at sub-G0/G1 phase at 10 uM after 24 hrs by propidium iodide staining based flow cytometry (reference value: 1.8%); assay type: functional
BXPC-3 [25] = assay: Induction of apoptosis in human BxPC3 cells assessed as accumulation at sub-G0/G1 phase at 10 uM after 48 hrs by propidium iodide staining based flow cytometry (reference value: 2.8%); assay type: functional
BXPC-3 [26] = assay: Induction of apoptosis in human BxPC3 cells assessed as accumulation at sub-G0/G1 phase at 10 uM after 72 hrs by propidium iodide staining based flow cytometry (reference value: 3.4%); assay type: functional
BXPC-3 [27] = assay: Induction of apoptosis in human BxPC3 cells harboring pSFFV-Bcl-XL assessed as accumulation at sub-G0/G1 phase at 10 uM after 24 hrs by propidium iodide staining based flow cytometry (reference value: 1.5%); assay type: functional
BXPC-3 [28] = assay: Induction of apoptosis in human BxPC3 cells harboring pSFFV-Bcl-XL assessed as accumulation at sub-G0/G1 phase at 10 uM after 48 hrs by propidium iodide staining based flow cytometry (reference value: 1.9%); assay type: functional
BXPC-3 [29] = assay: Induction of apoptosis in human BxPC3 cells harboring pSFFV-Bcl-XL assessed as accumulation at sub-G0/G1 phase at 10 uM after 72 hrs by propidium iodide staining based flow cytometry (reference value: 2%); assay type: functional
PK9 [30] = assay: Induction of apoptosis in human PK9 cells assessed as accumulation at sub-G0/G1 phase at 10 uM after 24 hrs by propidium iodide staining based flow cytometry (reference value: 2.2%); assay type: functional
PK9 [31] = assay: Induction of apoptosis in human PK9 cells assessed as accumulation at sub-G0/G1 phase at 10 uM after 48 hrs by propidium iodide staining based flow cytometry (reference value: 3.8%); assay type: functional
PK9 [32] = assay: Induction of apoptosis in human PK9 cells assessed as accumulation at sub-G0/G1 phase at 10 uM after 72 hrs by propidium iodide staining based flow cytometry (reference value: 4%); assay type: functional
Fibroblast [33] = assay: Induction of apoptosis in human primary fibroblasts assessed as accumulation at sub-G0/G1 phase at 10 uM after 24 hrs by propidium iodide staining based flow cytometry (reference value: 4.8%); assay type: cell-based
Fibroblast [34] = assay: Induction of apoptosis in human primary fibroblasts assessed as accumulation at sub-G0/G1 phase at 10 uM after 48 hrs by propidium iodide staining based flow cytometry (reference value: 6.1%); assay type: cell-based
Fibroblast [35] = assay: Induction of apoptosis in human primary fibroblasts assessed as accumulation at sub-G0/G1 phase at 10 uM after 72 hrs by propidium iodide staining based flow cytometry (reference value: 6.7%); assay type: cell-based
[36] = Induction of apoptosis in HPNE cells assessed as accumulation at sub-G0/G1 phase at 10 uM after 24 hrs by propidium iodide staining based flow cytometry (reference value: 0.6%); assay type: cell-based; conditions: human
[37] = Induction of apoptosis in HPNE cells assessed as accumulation at sub-G0/G1 phase at 10 uM after 48 hrs by propidium iodide staining based flow cytometry (reference value: 0.7%); assay type: cell-based; conditions: human
[38] = Induction of apoptosis in HPNE cells assessed as accumulation at sub-G0/G1 phase at 10 uM after 72 hrs by propidium iodide staining based flow cytometry (reference value: 6.6%); assay type: cell-based; conditions: human

Structure (SMILES): CCCCCCCC/C=C\CCCCCCCCOC[C@@H]1[C@@H](O)[C@@H](O)CN1C(C)C
- growth inhibition (GI) (SK-BR-3): Active
- growth inhibition (GI) (PK9 [1]): inactive
- growth inhibition (GI) (PANC-1 [2]): inactive

Structure (SMILES): CCCCCCCC/C=C\CCCCCCCCOC[C@@H]1[C@@H](O)[C@@H](O)CN1C(N)=O
- growth inhibition (GI) (SK-BR-3): Active
- growth inhibition (GI) (PK9 [1]): inactive
- growth inhibition (GI) (PANC-1 [2]): inactive

Structure (SMILES): CCCCCCCC/C=C\CCCCCCCCOC[C@@H]1[C@@H](O)[C@@H](O)CN1C
- growth inhibition (GI) (SK-BR-3): Active
- growth inhibition (GI) (PK9 [1]): inactive
- growth inhibition (GI) (PANC-1 [2]): inactive

Structure (SMILES): C(=C\c1ccc(-c2ccccc2)cc1)/CCCCCCCCOC[C@@H]1CCCN1.Cl
- IC50 (BXPC-3 [3]): 5.3 µM
- IC50 (PANC-1 [4]): 5.3 µM
- IC50 (MIA PaCa-2): 3.7 µM
- IC50 (PK9 [5]): 3.9 µM
- Activity (PANC-1 [6]): 0.9%
- Activity (PANC-1 [7]): 3.2%
- Activity (PANC-1 [8]): 10.6%
- Activity (PANC-1 [9]): 1%
- Activity (PANC-1 [10]): 2.3%
- Activity (PANC-1 [11]): 12.2%

Structure (SMILES): CCCCCCCC/C=C\CCCCCCCCOC[C@@H]1[C@@H](O)[C@@H](O)CN1CCCC
- growth inhibition (GI) (SK-BR-3): Active
- growth inhibition (GI) (PK9 [1]): inactive
- growth inhibition (GI) (PANC-1 [2]): inactive

Structure (SMILES): CCCCCCCC/C=C/CCCCCCCCOC[C@@H]1CCCN1.Cl
- IC50 (BXPC-3 [3]): 5.3 µM
- IC50 (PANC-1 [4]): 5.3 µM
- IC50 (MIA PaCa-2): 4.2 µM
- IC50 (PK9 [5]): 9.2 µM
- Activity (PANC-1 [6]): 1.2%
- Activity (PANC-1 [7]): 5.3%
- Activity (PANC-1 [8]): 2.5%
- Activity (PANC-1 [9]): 1.6%
- Activity (PANC-1 [10]): 2.6%
- Activity (PANC-1 [11]): 8%

Structure (SMILES): CCCCCCCC/C=C\CCCCCCCCOCC[C@H]1NC[C@H](O)[C@@H]1O
- Activity (BXPC-3 [12]): 17.7%
- Activity (BXPC-3 [13]): 32.5%
- Activity (BXPC-3 [14]): 46.2%
- Activity (BXPC-3 [15]): 2.3%
- Activity (BXPC-3 [16]): 3.4%
- Activity (BXPC-3 [17]): 4.1%
- Activity (PANC-1 [6]): 5%
- Activity (PANC-1 [7]): 13.6%
- Activity (PANC-1 [8]): 22.6%
- Activity (PK9 [18]): 8.3%
- Activity (PK9 [19]): 30.5%
- Activity (PK9 [20]): 37.7%
- Activity [21]: 63.8%
- Activity [22]: 67.5%
- Activity [23]: 73%
- Activity (PANC-1 [9]): 4.7%
- Activity (PANC-1 [10]): 3.9%
- Activity (PANC-1 [11]): 9.7%
- Activity (BXPC-3 [24]): 4.6%
- Activity (BXPC-3 [25]): 11.5%
- Activity (BXPC-3 [26]): 14.6%
- Activity (BXPC-3 [27]): 3%
- Activity (BXPC-3 [28]): 3.1%
- Activity (BXPC-3 [29]): 3.1%
- Activity (PK9 [30]): 2.8%
- Activity (PK9 [31]): 3.4%
- Activity (PK9 [32]): 2.7%
- Activity (Fibroblast [33]): 8.7%
- Activity (Fibroblast [34]): 8.2%
- Activity (Fibroblast [35]): 9.2%
- Activity [36]: 12.1%
- Activity [37]: 22.2%
- Activity [38]: 62.8%

Structure (SMILES): C(=C\c1ccc(-c2ccccc2)cc1)/CCCCCCOC[C@@H]1CCCN1.Cl
- IC50 (BXPC-3 [3]): 5.7 µM
- IC50 (PANC-1 [4]): 5.3 µM
- IC50 (MIA PaCa-2): 2.9 µM
- IC50 (PK9 [5]): 3.2 µM
- Activity (PANC-1 [6]): 2.3%
- Activity (PANC-1 [7]): 2.1%
- Activity (PANC-1 [8]): 4.3%
- Activity (PANC-1 [9]): 0.9%
- Activity (PANC-1 [10]): 1.6%
- Activity (PANC-1 [11]): 4.7%

Structure (SMILES): CCCCCCCC/C=C\CCCCCCCCOC[C@@H]1[C@@H](O)[C@@H](O)CN1C(C)=O
- growth inhibition (GI) (SK-BR-3): Active
- growth inhibition (GI) (PK9 [1]): inactive
- growth inhibition (GI) (PANC-1 [2]): inactive

Structure (SMILES): CCCCCCCC/C=C\CCCCCCCCOC[C@@H]1[C@@H](O)[C@@H](O)CN1Cc1ccccc1
- growth inhibition (GI) (SK-BR-3): Active
- growth inhibition (GI) (PK9 [1]): inactive
- growth inhibition (GI) (PANC-1 [2]): inactive

Structure (SMILES): CCCCCCCC/C=C\CCCCCCCCOC[C@@H]1CCCN1.Cl
- IC50 (BXPC-3 [3]): 5.3 µM
- IC50 (PANC-1 [4]): 4.7 µM
- IC50 (MIA PaCa-2): 5.4 µM
- IC50 (PK9 [5]): 6.5 µM
- Activity (PANC-1 [6]): 2.2%
- Activity (PANC-1 [7]): 2.3%
- Activity (PANC-1 [8]): 14.1%
- Activity (PANC-1 [9]): 2.4%
- Activity (PANC-1 [10]): 4.6%
- Activity (PANC-1 [11]): 14.4%
